We go through 87 compounds from a melting point compilation (Tetko et al.; mined from patent text by program, amines drawn as free bases though some values may be those of a salt).

Structures are written as SMILES.

`COc1cc(C(=O)N2Cc3ccc(C(=O)NCc4ccc5c(c4)OCCO5)n3Cc3ccccc32)ccc1-c1ccccc1C` yielded a melting point of 153 to 155 °C.
`CCCNC(=O)c1nc(C)ccc1C(=O)Nc1cccc2ccccc12` gave a melting point of 175 to 178 °C.
For `O=Cc1cccc(OCCc2coc(-c3ccccc3)n2)c1`, the melting point was 51 to 53 °C.
Next, `N#Cc1ccc(C(=O)N2CCN(NC(=O)c3ccc(F)cc3)CC2)cc1`: 222 to 224 °C; `CCOC(=O)C(C)(Cc1cccc(OCCN2CCCCC2)c1)S(=O)(=O)c1ccc(OC)cc1` (configuration not stated): 112 °C.
Consider `O=C(O)c1nc(N2CCCC2)ccc1OCc1ccccc1`, for which the melting point was 120 to 122 °C.
`O=C(Nc1cccc(C(=O)O)c1OCc1ccccc1Cl)c1ccccc1Cl` returned a melting point of 182 to 183 °C.
For the compound `OC1Cc2ccc(F)cc2Sc2ccc(I)cc21` (configuration not stated), the melting point amounted to 162 °C.
Next, `NC(=O)COc1ccc(CN2C(=O)C3(COc4cc5c(cc43)CCO5)c3ccccc32)cc1` (configuration not stated): 215 to 216 °C; `C=CCOc1cccc2oc(C=CC(=O)OCC)c(C)c12`: 79 to 80 °C; `Clc1nc(-c2cccnc2)sc1Br`: 114 to 115 °C.
On to `c1cn(CCCc2ccc(OCc3coc(C4CCCCC4)n3)cc2)cn1`, for which the melting point lay within 46 to 47 °C.
As for `O=c1[nH]c2ccccc2n1CCCN1CCC(O)(c2ccc(Cl)c(C(F)(F)F)c2)CC1`, the melting point was determined as 189 °C.
The result for `Clc1nnccc1-c1c(-c2ccccc2)nn2ccccc12` reads 208 to 210 °C; that for `COCCC1=C(C)C(=Cc2ccc(S(N)(=O)=O)cc2)c2ccc(OC)cc21`, 140 °C; that for `CN(CC(=O)C(Cc1ccccc1)NC(=O)c1ccccc1)C(=O)OCc1ccccc1` (configuration not stated), 140 to 141 °C.
The result for `O=C1C=CC(c2ccccc2)(c2ccccc2)[C@@H]2CN(Cc3ccccc3)C[C@H]12` (racemic) reads 132 °C; that for `CCOP(=O)(OCC)C(CNC=NNC(=O)c1nc2ccccc2[nH]1)P(=O)(OCC)OCC`, 143 °C.
As for `O=C(Nc1ccc(CCc2ccc(O)c(O)c2)cc1)C(=O)C1=C(O)c2ccccc2SC1`, the melting point is 166 to 167 °C.
In turn, `Cc1cc(-c2ccccc2)nn1C(C)(C)C(=O)N(C)C` displayed a melting point of 123 to 125 °C.
Next, `CCCCCCCCCCCCCCCCCCOc1cn(-c2ccc(OCc3ccccc3)cc2)c(CNCCCN(C)C)cc1=O`: 103 to 109 °C; `CCCCOc1cccc(C[C@H](NC(C)=O)[C@H](O)CNCc2cccc(CC)c2)c1`: 112 to 114 °C.
The compound `Cc1cc(C)c2ncc(NC(=O)c3cc(C)c(O)c(C)c3C)c(-c3ccccc3Cl)c2c1` yielded a melting point of 261 to 264 °C.
The compound `ClCc1nc2cc(Br)ccc2o1` gave a melting point of 63 to 65 °C.
Turning to `CS(=O)(=O)c1ccc(-c2cc(C(=O)CCCO)nn2-c2ccc(C(F)(F)F)cc2)cc1`, the melting point was 60 to 63 °C.
On to `Nc1ccc([N+](=O)[O-])cc1S(=O)(=O)CCO`, for which the melting point was found to be 175 °C.
As for `COc1cc2c(cc1Br)-c1c(-c3cccs3)c3c(n1CC2)C(=O)N(C(C)C)CCNC3`, the melting point is 201 to 203 °C.
`CC(=O)Oc1c(Cl)nc(-c2ccccc2)nc1Cl` displayed a melting point of 145 to 147 °C.
Take `CC(=O)NC[C@H]1CN(c2ccc(-n3nccc3-c3ccc(Br)cn3)c(F)c2)C(=O)O1`: the melting point is 92.7 to 95.4 °C.
`COc1cc(OC)nc(NC(=O)NS(=O)(=O)c2ccccc2Cc2nnc(SC)s2)n1` gave a melting point of 171 to 175 °C.
The compound `OC12C=C(C3NCCc4c3[nH]c3ccccc43)C3CCN(CCCCC=CCC1)CC31CC3C=CCCCCN3C21` (configuration not stated) showed a melting point of 165 to 168 °C.
Take `CCCCCC1CCc2cc(C(=O)Oc3ccc(CCCC)cc3)ccc2C1` (configuration not stated): the melting point was 48.1 °C.
Next, `Cc1c(F)cccc1N1CC(C(=O)O)CC1=O` (configuration not stated): 155 to 160 °C.
In turn, `O=C(O)Cc1ccc(-n2cc(Cl)cn2)cc1` yielded a melting point of 176 to 178 °C.
Next, `O=C1CCOc2ccc(OCc3ccc4ccccc4n3)cc21`: 112 to 114 °C.
The result for `COC(=O)c1c(C(=O)OC)c(-c2ccc(OC)c(OC)c2)c2c(OC)c(OC)c(OC)cc2c1O` reads 178 to 179 °C; that for `CCOC(=O)C1=C(C)N(C(C)=O)C(c2csc(C)n2)=NC1c1ccc(F)cc1` (configuration not stated), 140 to 142 °C.
Take `S=C(Nc1cccc(Br)c1)N1CCCSC1c1ccccc1` (configuration not stated): the melting point lay in the range of 135 to 137 °C.
Next, `OC1CSC(Oc2ccc(-c3cncc(F)c3)nc2)C(O)C1O` (configuration not stated): 207 to 217 °C.
The compound `COC(=O)C1=Cc2cc(-c3ccc(N4CCOCC4)cc3)ccc2S(=O)(=O)CC1` came in with a melting point of 215 to 217 °C.
`Cc1ccc2c(=O)n3ccsc3nc2c1` showed a melting point of 174 to 178 °C.
For `CC(=O)C1=C(O)c2ccc3ccccc3c2S(=O)(=O)N1`, the melting point was in the range of 191 to 192 °C.
In turn, `O=C(O)C(=O)c1ccc(OCCOc2ccccc2F)cc1` showed a melting point of 108 to 110 °C.
Next, `COC(=O)C1=C(C#N)NC(C)=C(C(=O)OC(C)C)C1c1ccccc1[N+](=O)[O-]` (configuration not stated): 176 °C; `CC(C)N(c1ccc(C(=O)Oc2ccccc2)c(Cl)c1)S(=O)(=O)c1ccccc1`: 120 °C; `COc1ccc(CC(C(N)=O)S(C)(=O)=O)cc1C(=O)NCc1ccc(C(F)(F)F)cc1` (configuration not stated): 219 to 220 °C.
For `CC(C)C(NC(=O)C(C)(C)C)C(C)C`, the melting point is 107 to 109 °C.
Turning to `O=Cc1cc(O)ccc1-c1cccnc1`, the melting point fell in the range of 182 to 184 °C.
The result for `N#Cc1ccc(F)cc1-c1ccc(C(F)(F)F)cc1` reads 106 to 107 °C; that for `COc1cccc(N2CCC(C(N)=O)CC2)c1`, 153 to 156 °C.
Next, `Cc1cc(Cn2c(-c3ccccc3)nc(Cl)c2CC(=O)O)ccc1OCc1ccccc1`: 177 to 178 °C.
The result for `CCCCc1c(CO)ccc2ccc(OC)cc12` reads 52 to 53 °C; that for `CC(=O)NC(=Cc1ccc(C#N)cc1)C(=O)N[C@H](C(=O)O)C1CCCCC1`, 196 to 198 °C.
Consider `CS(=O)(=O)Nc1ccc(C(=O)NC(=O)N2CCC(Cc3ccc(F)cc3)CC2)cc1`, for which the melting point lay in the range of 221 to 222 °C.
The result for `O=C(c1cc(Cl)ccc1Nc1ccncc1)N1CCCCC1` reads 158 to 159 °C.
Next, `CCOc1ccc(C(=O)OC)c(Cl)n1`: 46 to 48 °C; `C[C@@H]1[C@@H](S(=O)(=O)c2ccccc2)[C@@H]2O[C@@H]2C[C@@H]1O`: 148 °C.
As to `O=C(Nc1cc(-c2ccc(Cl)cc2)no1)c1c(Cl)cccc1Cl`, the melting point is 208 to 209 °C.
As to `OCCSc1ccc(O)cc1`, the melting point was determined as 70 °C.
Next, `CC(=O)N1CCN(c2c(N[C@@H](Cc3ccccc3)C(=O)O)c(=O)c2=O)CC1`: 155 to 158 °C; `COc1ccc(-n2nc(CO)cc2-c2ccc(Cl)cc2)cc1`: 95 to 97 °C.
The result for `CCOC(=O)C(=O)c1cc(O)c(O)c([N+](=O)[O-])c1` reads 77 to 79 °C; that for `CN(C)CCNS(=O)(=O)c1cc(NC(=O)c2cnn3c(C(F)(F)F)cc(-c4ccc(C(F)(F)F)cc4)nc23)c(Cl)s1`, 198 °C; that for `Cc1cccc(NC(=O)NC2CC(c3ccccc3)c3ccccc3N(CC(=O)NC(C)(C)C)C2=O)c1` (configuration not stated), 263 to 266 °C.
The result for `O=C(O)c1cc(C(=O)O)c(C(O)=NCO)cc1C(O)=NCO` reads 300 °C; that for `Cn1c(=O)c2c(N3CCCCC3)cccc2n2cnc(-c3noc(C4CC4)n3)c12`, 185 to 192 °C.
In turn, `O=C(Nc1ccc(Cl)cc1)Nc1ccc2c(c1)OC(F)(F)O2` returned a melting point of 231 to 233 °C.
Next, `CC(=O)Nc1ccc(/C=C/C(=O)N2CC(CCl)c3c2cc(N)c2ccccc32)cc1` (configuration not stated): more than 250 °C.
In the case of `OC(c1ccccc1)c1cc2ccncc2[nH]1` (configuration not stated), the melting point lay within 178 to 180 °C.
`Cc1ccc(S(=O)(=O)Nc2nc(-c3cccc(-c4ccccc4)c3)cs2)cc1` gave a melting point of 153 to 155 °C.
In the case of `C=CCOc1nc(Cl)nc2nc[nH]c12`, the melting point was in the range of 208 to 209 °C.
Compound `Cn1c(=O)c2c(ncn2Cc2noc(O)n2)n(C)c1=O` gave a melting point of 206 to 207 °C.
As for `CCOC(=O)C(N)Cc1c(OCC)noc1C(=O)O` (racemic), the melting point is 159 to 161 °C.
`Cc1[nH]c(C(=O)Nc2ccc3ncsc3c2)c(C)c1-c1nc2ccc(C(=O)c3ccccc3)cc2[nH]1` displayed a melting point of 155 to 157 °C.
Compound `Cc1nc(NC(=O)Nc2ccccc2)n(C)c(=O)c1CCN1CCC(Cc2nc3ccccc3n2Cc2ccc(F)cc2)CC1` gave a melting point of 157 °C.
The result for `CN1CCCC(Cn2cc(-c3ccccc3)c(O)n2)C1` (configuration not stated) reads 132 °C.
Compound `O=C(O)C1CC(C(=O)O)C(C(=O)O)C1C(=O)O` (configuration not stated) showed a melting point of 186 °C.
Consider `CC(=O)Nc1ccc2oc3c(OC(F)F)ccc(C(=O)Nc4c(Cl)cncc4Cl)c3c2c1`, for which the melting point turned out to be 234 °C.
`N#Cc1cnn2c(-c3cccc(C(F)(F)F)c3)ccnc12` registered a melting point of 141 to 142 °C.
Next, `O=c1c2c(nc3ccc(Cl)cn13)C(=Cc1ccccc1)CC2`: 212 to 213 °C; `C1=C(c2ccccc2)CCN(Cc2cc3ccccc3[nH]2)C1`: 128 to 130 °C.
Next, `Cn1c(COc2ccc(CC3SC(=O)NC3=O)cc2)nc2ccc(Oc3cccc(NC(=O)Nc4cccc(C#N)c4)c3)cc21` (configuration not stated): 148 to 154 °C; `CCn1cc(C(=O)O)c(=O)c2cc(F)c(N3CCC(CNC(C)C)C3)nc21` (configuration not stated): 302 to 304 °C; `Cc1cc(C(O)(c2ccccc2)c2ccccc2)on1`: 116 to 118 °C.
For `CC(C)(C)c1nn(-c2cc(O)c(Cl)cc2Cl)c(=O)s1`, the melting point was 130 to 132 °C.
Next, `Nc1cccc2c1cnn2-c1ccc(F)cc1`: 84 to 88 °C; `CCCNC(=O)C(C)Cc1ccc2c(c1)c(Cc1ccc(C(=O)NS(=O)(=O)c3ccccc3C)cc1OC)cn2CCC` (configuration not stated): 95 to 113 °C.

For orientation: melting point means the temperature of the solid-liquid transition.
